The subject of one data set is HK-2 cells. The data set can be described thus: 72 h MTT cytotoxicity, HK-2. Type of data set: cell-based. The method, then:
(§1) Cytotoxicity. Tumor cells were cultured overnight after inoculation in RPMI-1640 medium or DMEM supplemented with 10% FBS. All cultures were maintained in an incubator in a highly humidified atmosphere of 95% air with 5% CO2 at 37 °C. Growth inhibition was measured with an MTT assay. Briefly, 2800–7000 cells per well in culture medium (100 μL) were plated in 96-well plates (Corning). The cells were treated in triplicate with different concentrations of complexes at 37 ℃ for 72 h. Stock solutions of CDDP and oxoplatin were prepared in PBS, while stock solutions of conjugates I and II and the ligand MSA-2 were prepared in DMSO. The stock solutions were diluted in complete medium (DMSO < 0.5%). An aliquot of MTT solution (40 μL, 2.5 mg·mL^–1) in PBS buffer was added to each well and incubated for 4 h. The supernatant was removed and DMSO (150 μL) was added to solubilize the formazan crystals. The amount of formazan was determined using a microplate reader at 570 nm after the plates were shaken for 30 min. The optical density (OD) was used to calculate the percentage of viable cells relative to untreated control values. Background readings for MTT incubated in cell-free medium were subtracted from each value before calculation. […] The mean IC50 values were calculated using data from three replicates.

For the next data set, the system named is Caov3 cells. The data set can be described thus: 72 h MTT cytotoxicity, Caov3. Type of data set: cell-based, human. The method, then: as §1
Data set [1] relates to PANC-1 cells. The data set can be described thus: 72 h MTT cytotoxicity, PANC-1. Type of data set: cell-based, human. The method, then: as §1
Another data set concerns BxPC3 cells. In words: 72 h MTT cytotoxicity, BxPC3. The data set is classed as cell-based, human. The method, then:
as §1

The test system of another data set is Pan02 cells. The data set can be described thus: 72 h MTT cytotoxicity, Pan02. The data set is classed as cell-based, mouse. The method, then: as §1
In a further data set the test system is MCF-7 cells. The data set can be described thus: 72 h MTT cytotoxicity, MCF-7. The data set is classed as cell-based, human. The method, then: as §1
The subject of data set [2] is PANC-1 cells. In words: cellular uptake of Pt by ICP-MS, PANC-1. The data set is classed as cell-based, human. The note with it: PANC-1 cells, 6 h incubation, ICP-MS. The method, then: Cellular uptake. All incubations were carried out in the dark. After the designated incubation period, the medium was removed, and the cells were harvested with trypsin and rinsed twice with PBS (1×, 20 mM, pH 7.4), followed by digestion and ICP-MS.
Cancer cells were seeded in a 6-well plate at a density of 5×10^5 cells per well. After incubation for 24 h, the cells were treated with each complex for 6 h.
Cancer cells preincubated with metabolic inhibitor (MIs) were also evaluated. These cells were preincubated with 2-deoxy-D-glucose and oligomycin (50 mM and 5 μM, respectively, 1 h) or NH4Cl (50 mM, 1 h) at 37 ℃ followed by incubation with DMEM containing CDDP, I or II at 37 ℃ for 6 h.
Digestion. Cell pellets were collected by centrifugation and then digested with nitric acid (100 µL) for 2 h at 95 °C, followed by the addition of H2O2 (50 µL) at 95 °C for 0.5 h. HCl (100 µL) was added and kept at 95 °C until the total volume was less than 20 μL. Water was then added to dilute the solution to 1 mL, and the final Pt content was determined by ICP-MS.

Data set [3] has as its system BMDCs cultured with Pan02 cell CM. In words: IFN-β ELISA of BMDCs incubated with conditioned medium of drug-treated Pan02 cells. The note with it: Pan02 treated 48 h at 5 μM (Pt-E-I 20 μM); BMDCs 50% CM, 18 h. The data set is classed as cell-based, mouse. The method, then: (§2) ELISA. Bone marrow-derived dendritic cells (BMDCs) were prepared according to the following method. Briefly, femurs and tibias were removed from 4-6 week-old C57BL/6 mice, and the bone marrow cells were isolated. The bone marrow cells were incubated in T cell medium [RPMI-1640 medium (with GlutaMAX), supplemented with 10% FBS, 1% HEPES, 1% NEAA, 1% sodium pyruvate, and 0.1% βME] containing 20 ng/mL GM-CSF for 6 days after erythrocyte lysis, during which time half of the medium was replaced with fresh T cell medium once and the cytokines were supplemented. Then, the BMDCs were harvested on day 7 for further study.
Pan02 tumor cells were treated with various drugs at a concentration of 5 μM for 48 h, and then the drug-pretreated tumor cell supernatant was obtained by centrifugation at a speed of 12000 rpm/min for 5 min and used as conditioned media (CM) subsequently.
(§3) BMDCs were cultured with 50% CM plus 50% fresh medium for 18 h. In addition, BMDCs were cultured with fresh medium containing different complexes or mixtures (15 μM CDDP and I, a mixture of I and 8 equiv. AsA, and equal AsA). Then, all the BMDC supernatant was collected and centrifuged for subsequent cytokine analysis using ELISA kits, which were performed according to the manufacturer’s instructions.
For orientation: An ELISA detects its analyte on a solid surface through an enzyme-linked reagent.

The test system of the next data set is Pan02 tumors. In words: in vivo antitumor activity, C57BL/6 mice bearing Pan02 tumors. More on the design: species or system mouse. The note with it: C57BL/6 mice, Pan02 tumors, 10.0 μmol/kg every 2 days for 16 days, intravenous. The method, then:
In vivo antitumor activity. Female C57BL/6 mice (6–8 weeks old) were subcutaneously implanted with pan02 cells (2 × 10^6) in the right flank. Once the tumor volume reached approximately 60 mm^3, the mice were assigned to 4 groups at random (n = 5–8) and received treatment with PBS, CDDP (10.0 μmol/kg), I (10.0 μmol/kg), or a mixture of CDDP (10.0 μmol/kg) and MSA-2 (10.0 μmol/kg). The mice received 9 treatments. Changes in body weight and tumor volume were recorded. All the experimental procedures utilizing mice were performed in accordance with the Guidelines for Care and Use of Laboratory Animals of Nanjing University and experiments were approved by the Institutional Animal Care and Use Committee of Nanjing University (IACUC-2101001, SL-019-00).

The nature of data set [4]: H&E histology of major organs after treatment. Type of data set: in vivo, mouse. The note with it: C57BL/6 mice after treatment, 10.0 μmol/kg. The method, then:
Hematoxylin and eosin staining. Tissue samples were subjected to histopathological examination using hematoxylin and eosin (H&E) staining. Mouse organs (heart, liver, spleen, lungs and kidneys) were collected in 4% paraformaldehyde for proper fixation and then embedded in paraffin using a tissue embedding machine. Sections were prepared in an orderly manner by dewaxing, dehydration, and H&E staining. The tissue morphology was observed under a fluorescence microscope (Olympus BX41, Japan).

Data set [5] relates to cancer cell lines (MCF-7, Caov3, PANC-1, BxPC3, Pan02). The data set can be described thus: 72 h MTT cytotoxicity, panel of cancer cell lines. Type of data set: cell-based. The note with it: read-out: IC50 in these cancer cell lines. The method, then: as §1
The next data set deals with STING pathway in BMDCs. The data set can be described thus: IFN-β and IL-6 ELISA in supernatants of BMDCs treated with complexes. The data set is classed as cell-based, mouse. The note with it: 18 h, ELISA, 15 μM. The method, then: as §2, §3
A short description of data set [6]: octanol-water partition coefficient, shake-flask, ICP-MS. The note with it: n-octanol / phosphate buffer 10 mM pH 7.4, room temperature. Type of data set: physicochemical. The method, then:
Lipid-water partition coefficient. The shake-flask method was used to measure the partition coefficients of CDDP, I and II. Briefly, a mixture containing equal volumes of n-octanol and phosphate buffer (10 mM, pH 7.4) was shaken on a mechanical shaker at room temperature for 24 h. Complexes (10 mM) in phosphate buffer (presaturated with n-octanol) were mixed with an equal volume of n-octanol (presaturated with phosphate buffer), and the mixture was shaken for 24 h at room temperature. Centrifugation was carried out at 2500 rpm for 30 min to separate the two phases. The aqueous layer was carefully separated, and the Pt content in the initial and final aqueous phases was analyzed by inductively coupled plasma mass spectrometry (ICP-MS). The log PO/W was measured using the following equation: log PO/W = log [(Ptinitial ‒ Ptfinal)/Ptfinal].

Data set [7] can be described thus: reduction by ascorbic acid (AsA) followed by 1H-/195Pt-NMR. Type of data set: physicochemical. The note with it: 20 mM, 8 equiv. AsA, 5:1 d6-DMSO:D2O, 37 °C, dark. The method, then: Reduction of I and II. Samples were prepared by reacting I or II (20 mM) with 8 equiv. AsA in 5:1 d6-DMSO:D2O solutions. The time course of the reaction was monitored by ^1H-NMR and ^195Pt-NMR after incubation of the samples were incubated at 37 °C for 0, 3, 6, 12, 24, 36, 48, 60, 72, 84, 96, or 120 h in the dark.

Structures are written as SMILES. Read-outs that look alike come from different tables or passages of the source.

By IC50 is commonly meant the concentration needed to halve the response being measured.

On to `[NH2][Pt]([NH2])([Cl])[Cl]` [CDDP, cisplatin], for which the IC50 in the data set with HK-2 cells (human normal kidney cell line) was determined as 8.2 ± 0.5 µM; with Caov3 cells, 26.8 ± 2.2 µM; in the data set with PANC-1 cells [1], 11.1 ± 1.3 µM; with BxPC3 cells, 1.6 ± 0.1 µM; in the data set with Pan02 cells, 8.3 ± 0.6 µM; in the data set on MCF-7 cells it was 5.4 ± 0.3 µM. For the same compound, in the data set on PANC-1 cells [2], the “cellular Pt content” value stood at 1.7 ng Pt/mg protein. The “IFN-β secretion by BMDCs incubated with treated Pan02 cell CM” value in [3] is recorded as “slightly increased”. In the data set with Pan02 tumors, this compound yielded a tumor volume of 200.2 ± 20.6 mm^3. For the same compound, the “histological findings in major organs” value in data set [4] is “substantial blood cell stasis in the liver blood sinuses and thickening of the alveolar wall as well as large infiltrates of inflammatory cells in the trachea and bronchus”.

Regarding `COc1cc2cc(C(=O)CCC(=O)O)sc2cc1OC` [MSA-2], the IC50 in the data set with HK-2 cells (HK-2, human normal kidney cell line) was > 50 µM; in the data set on Caov3 cells (Homo sapiens, Caov-3), > 50 µM; in the data set with PANC-1 cells [1] (Homo sapiens, PANC-1) it was > 50 µM; in the data set on BxPC3 cells (Homo sapiens, BXPC-3), > 50 µM; in the data set with Pan02 cells (Mus musculus, Pan02) it was > 50 µM; in the data set on MCF-7 cells (Homo sapiens, MCF7) it was > 50 µM. For the same compound, in data set [5], the IC50 is > 50 µM. Also, the “IFN-β secretion by BMDCs” value with STING pathway in BMDCs is recorded as “robust”. Moreover, the “IL-6 secretion by BMDCs” value in the data set on STING pathway in BMDCs is reported as “robust”. Also, the “IFN-β secretion by BMDCs incubated with treated Pan02 cell CM” value in data set [3] is “moderate”.

Regarding `N.N.[Cl-].[Cl-].[OH-].[OH-].[Pt+4]` [Oxoplatin, Cis-diamminedichloro-trans-dihydroxyplatinum], the IC50 was 38.7 ± 4.1 µM with HK-2 cells (human normal kidney cell line); > 50 µM in the data set with Caov3 cells; > 50 µM in the data set with PANC-1 cells [1]; > 50 µM in the data set on BxPC3 cells; > 50 µM in the data set on Pan02 cells; 8.2 ± 0.7 µM in the data set with MCF-7 cells.

With `COc1cc2cc(C(=O)CCC(=O)[O][Pt]([NH2])([NH2])([Cl])([Cl])[O]C(=O)CCC(=O)c3cc4cc(OC)c(OC)cc4s3)sc2cc1OC` [conjugate II], the “octanol-water partition coefficient (logPo/w)” value in [6] is on record as 2.1. The “time at which reduction by AsA finished” value in data set [7] amounted to 120 h. Further, the 50% inhibitory concentration (IC50) with HK-2 cells (human normal kidney cell line) was 3.6 ± 1.2 µM; in the data set on Caov3 cells, 5.3 ± 0.4 µM; in the data set on PANC-1 cells [1] it was 6.9 ± 0.9 µM; in the data set with BxPC3 cells, 4.9 ± 0.8 µM; with Pan02 cells, 8.4 ± 0.7 µM; in the data set with MCF-7 cells, > 64 µM. The “cellular Pt content” value in the data set on PANC-1 cells [2] came out at 2.3 ng Pt/mg protein.

The values above are taken from publication PMC10852989, “Combining cisplatin and a STING agonist into one molecule for metalloimmunotherapy of cancer” (National Science Review, 2024).
